Data as given in paper PMC8401933 (Molecules, 2021).

Tests used:
[1] = biological target: T1, MLK3 (Homo sapiens, UniProt Q16584); test: KINOMEscan binding; conditions: read-out: Percent Control
T1 construct: purchased Eurofins DiscoverX KINOMEscan

[2] = biological target: T2, ZAP70 (Homo sapiens, UniProt P43403); test: KINOMEscan binding; conditions: read-out: Percent Control
T2 construct: purchased Eurofins DiscoverX KINOMEscan

[3] = biological target: T3, BMPR2 (Homo sapiens, UniProt Q13873); test: KINOMEscan binding; conditions: read-out: Percent Control
T3 construct: purchased Eurofins DiscoverX KINOMEscan

[4] = biological target: T4, CSK (Homo sapiens, UniProt P41240); test: KINOMEscan binding; conditions: read-out: Percent Control
T4 construct: purchased Eurofins DiscoverX KINOMEscan

[5] = biological target: T5, MRCKA (Homo sapiens, UniProt Q5VT25); test: KINOMEscan binding; conditions: read-out: Percent Control
T5 construct: purchased Eurofins DiscoverX KINOMEscan

[6] = biological target: T6, SNARK (Homo sapiens, UniProt Q9H093); test: KINOMEscan binding; conditions: read-out: Percent Control
T6 construct: purchased Eurofins DiscoverX KINOMEscan

[7] = biological target: T7, PLK2 (Homo sapiens, UniProt Q9NYY3); test: KINOMEscan binding; conditions: read-out: Percent Control
T7 construct: purchased Eurofins DiscoverX KINOMEscan

[8] = biological target: T8, LYN (Homo sapiens, UniProt P07948); test: KINOMEscan binding; conditions: read-out: Percent Control
T8 construct: purchased Eurofins DiscoverX KINOMEscan

[9] = biological target: T9, CDKL3 (Homo sapiens, UniProt Q8IVW4); test: KINOMEscan binding; conditions: read-out: Percent Control
T9 construct: purchased Eurofins DiscoverX KINOMEscan

[10] = biological target: T10, AAK1 (Homo sapiens, UniProt Q2M2I8); test: KINOMEscan binding; conditions: read-out: Percent Control
T10 construct: purchased Eurofins DiscoverX KINOMEscan

[11] = biological target: T11, RIOK1 (Homo sapiens, UniProt Q9BRS2); test: KINOMEscan binding; conditions: read-out: Percent Control
T11 construct: purchased Eurofins DiscoverX KINOMEscan

[12] = biological target: T12, TXK (Homo sapiens, UniProt P42681); test: KINOMEscan binding; conditions: read-out: Percent Control
T12 construct: purchased Eurofins DiscoverX KINOMEscan

[13] = biological target: T13, PLK4 (Homo sapiens, UniProt O00444); test: KINOMEscan binding; conditions: read-out: Percent Control
T13 construct: purchased Eurofins DiscoverX KINOMEscan

[14] = biological target: T14, FLT3(D835Y) (Homo sapiens, UniProt P36888, D835Y); test: KINOMEscan binding; conditions: read-out: Percent Control
T14 construct: purchased Eurofins DiscoverX KINOMEscan

[15] = biological target: T15, FGFR3 (Homo sapiens, UniProt P22607); test: KINOMEscan binding; conditions: read-out: Percent Control
T15 construct: purchased Eurofins DiscoverX KINOMEscan

[16] = biological target: T16, ADCK3 (Homo sapiens, UniProt Q8NI60); test: KINOMEscan binding; conditions: read-out: Percent Control
T16 construct: purchased Eurofins DiscoverX KINOMEscan

[17] = biological target: T17, CDK9 (Homo sapiens, UniProt P50750); test: KINOMEscan binding; conditions: read-out: Percent Control
T17 construct: purchased Eurofins DiscoverX KINOMEscan

[18] = biological target: T18, FGFR1 (Homo sapiens, UniProt P11362); test: KINOMEscan binding; conditions: read-out: Percent Control
T18 construct: purchased Eurofins DiscoverX KINOMEscan

[19] = biological target: T19, FLT3(R834Q) (Homo sapiens, UniProt P36888, R834Q); test: KINOMEscan binding; conditions: read-out: Percent Control
T19 construct: purchased Eurofins DiscoverX KINOMEscan

[20] = biological target: T20, VRK2 (Homo sapiens, UniProt Q86Y07); test: KINOMEscan binding; conditions: read-out: Percent Control
T20 construct: purchased Eurofins DiscoverX KINOMEscan

[21] = oral, rat model; cited from earlier work
[22] = biological target: T21, PCTK3 (Homo sapiens, UniProt Q07002); test: KINOMEscan binding; conditions: read-out: Percent Control
T21 construct: purchased Eurofins DiscoverX KINOMEscan

[23] = biological target: T22, EPHB4 (Homo sapiens, UniProt P54760); test: KINOMEscan binding; conditions: read-out: Percent Control
T22 construct: purchased Eurofins DiscoverX KINOMEscan

[24] = biological target: T23, MELK (Homo sapiens, UniProt Q14680); test: KINOMEscan binding; conditions: read-out: Percent Control
T23 construct: purchased Eurofins DiscoverX KINOMEscan

[25] = biological target: T24, PIM1 (Homo sapiens, UniProt P11309); test: KINOMEscan binding; conditions: read-out: Percent Control
T24 construct: purchased Eurofins DiscoverX KINOMEscan

[26] = biological target: T25, EPHA8 (Homo sapiens, UniProt P29322); test: KINOMEscan binding; conditions: read-out: Percent Control
T25 construct: purchased Eurofins DiscoverX KINOMEscan

[27] = biological target: T26, MERTK (Homo sapiens, UniProt Q12866); test: KINOMEscan binding; conditions: read-out: Percent Control
T26 construct: purchased Eurofins DiscoverX KINOMEscan

[28] = biological target: T27, RSK1(Kin.Dom.1-N-terminal) (Homo sapiens, UniProt Q15418); test: KINOMEscan binding; conditions: read-out: Percent Control
T27 construct: RSK1(Kin.Dom.1-N-terminal); purchased Eurofins DiscoverX KINOMEscan

[29] = biological target: T28, YANK1 (Homo sapiens, UniProt Q8WU08); test: KINOMEscan binding; conditions: read-out: Percent Control
T28 construct: purchased Eurofins DiscoverX KINOMEscan

[30] = biological target: T29, ANKK1 (Homo sapiens, UniProt Q8NFD2); test: KINOMEscan binding; conditions: read-out: Percent Control
T29 construct: purchased Eurofins DiscoverX KINOMEscan

[31] = biological target: T30, PCTK2 (Homo sapiens, UniProt Q00537); test: KINOMEscan binding; conditions: read-out: Percent Control
T30 construct: purchased Eurofins DiscoverX KINOMEscan

[32] = biological target: T31, JAK2(JH1domain-catalytic) (Homo sapiens, UniProt O60674); test: KINOMEscan binding; conditions: read-out: Percent Control
T31 construct: JAK2(JH1domain-catalytic); purchased Eurofins DiscoverX KINOMEscan

[33] = biological target: T32, PDPK1 (Homo sapiens, UniProt O15530); test: KINOMEscan binding; conditions: read-out: Percent Control
T32 construct: purchased Eurofins DiscoverX KINOMEscan

[34] = biological target: T33, WEE2 (Homo sapiens, UniProt P0C1S8); test: KINOMEscan binding; conditions: read-out: Percent Control
T33 construct: purchased Eurofins DiscoverX KINOMEscan

[35] = biological target: T34, ABL1(T315I)-phosphorylated (Homo sapiens, UniProt P00519, T315I); test: KINOMEscan binding; conditions: read-out: Percent Control
T34 construct: purchased Eurofins DiscoverX KINOMEscan

[36] = biological target: T35, MAP4K3 (Homo sapiens, UniProt Q8IVH8); test: KINOMEscan binding; conditions: read-out: Percent Control
T35 construct: purchased Eurofins DiscoverX KINOMEscan

[37] = biological target: T36, AXL (Homo sapiens, UniProt P30530); test: KINOMEscan binding; conditions: read-out: Percent Control
T36 construct: purchased Eurofins DiscoverX KINOMEscan

[38] = biological target: T37, PIK3CA (Homo sapiens, UniProt P42336); test: KINOMEscan binding; conditions: read-out: Percent Control
T37 construct: purchased Eurofins DiscoverX KINOMEscan

[39] = biological target: T38, NEK2 (Homo sapiens, UniProt P51955); test: KINOMEscan binding; conditions: read-out: Percent Control
T38 construct: purchased Eurofins DiscoverX KINOMEscan

[40] = biological target: T39, RIOK2 (Homo sapiens, UniProt Q9BVS4); test: KINOMEscan binding; conditions: read-out: Percent Control
T39 construct: purchased Eurofins DiscoverX KINOMEscan

[41] = biological target: T40, MEK3 (Homo sapiens, UniProt P46734); test: KINOMEscan binding; conditions: read-out: Percent Control
T40 construct: purchased Eurofins DiscoverX KINOMEscan

[42] = biological target: T41, BMX (Homo sapiens, UniProt P51813); test: KINOMEscan binding; conditions: read-out: Percent Control
T41 construct: purchased Eurofins DiscoverX KINOMEscan

T11 sequence (Q9BRS2 whole entry): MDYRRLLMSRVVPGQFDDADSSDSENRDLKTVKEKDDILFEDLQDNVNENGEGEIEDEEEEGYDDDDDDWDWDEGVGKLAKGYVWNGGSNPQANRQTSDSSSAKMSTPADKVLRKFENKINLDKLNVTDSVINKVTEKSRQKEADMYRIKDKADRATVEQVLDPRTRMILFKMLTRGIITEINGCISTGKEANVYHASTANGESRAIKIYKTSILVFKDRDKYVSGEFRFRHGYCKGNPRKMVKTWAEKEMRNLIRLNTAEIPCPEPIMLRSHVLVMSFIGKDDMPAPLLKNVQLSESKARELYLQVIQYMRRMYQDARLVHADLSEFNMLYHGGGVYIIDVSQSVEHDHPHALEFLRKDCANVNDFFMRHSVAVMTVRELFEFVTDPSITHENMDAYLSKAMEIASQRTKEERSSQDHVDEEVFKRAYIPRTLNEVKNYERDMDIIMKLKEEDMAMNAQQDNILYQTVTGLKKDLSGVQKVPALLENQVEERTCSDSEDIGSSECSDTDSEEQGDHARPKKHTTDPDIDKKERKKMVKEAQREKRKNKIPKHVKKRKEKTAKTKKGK
T15 sequence (P22607 23-806): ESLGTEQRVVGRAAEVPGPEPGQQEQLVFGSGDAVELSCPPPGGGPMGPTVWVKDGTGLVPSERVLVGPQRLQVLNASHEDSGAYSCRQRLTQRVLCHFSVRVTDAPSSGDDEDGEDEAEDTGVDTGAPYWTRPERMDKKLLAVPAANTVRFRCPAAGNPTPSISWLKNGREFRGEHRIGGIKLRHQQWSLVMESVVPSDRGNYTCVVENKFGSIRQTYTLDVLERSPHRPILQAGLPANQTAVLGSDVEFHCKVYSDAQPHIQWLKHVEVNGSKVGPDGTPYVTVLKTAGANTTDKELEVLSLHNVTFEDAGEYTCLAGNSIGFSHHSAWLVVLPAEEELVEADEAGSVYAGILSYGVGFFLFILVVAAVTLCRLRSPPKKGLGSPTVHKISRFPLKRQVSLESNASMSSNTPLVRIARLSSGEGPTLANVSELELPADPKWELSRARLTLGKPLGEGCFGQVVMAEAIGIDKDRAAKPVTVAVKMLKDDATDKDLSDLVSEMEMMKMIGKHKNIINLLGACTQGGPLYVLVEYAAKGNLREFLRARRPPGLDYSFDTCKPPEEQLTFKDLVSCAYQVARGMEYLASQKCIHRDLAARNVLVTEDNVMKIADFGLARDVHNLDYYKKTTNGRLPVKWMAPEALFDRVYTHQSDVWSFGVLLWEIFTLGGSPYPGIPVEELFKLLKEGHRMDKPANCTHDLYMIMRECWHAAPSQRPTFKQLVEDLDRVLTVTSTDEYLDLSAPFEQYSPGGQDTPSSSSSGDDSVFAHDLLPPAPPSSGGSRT
T31 sequence (O60674 840-1132 limits assumed): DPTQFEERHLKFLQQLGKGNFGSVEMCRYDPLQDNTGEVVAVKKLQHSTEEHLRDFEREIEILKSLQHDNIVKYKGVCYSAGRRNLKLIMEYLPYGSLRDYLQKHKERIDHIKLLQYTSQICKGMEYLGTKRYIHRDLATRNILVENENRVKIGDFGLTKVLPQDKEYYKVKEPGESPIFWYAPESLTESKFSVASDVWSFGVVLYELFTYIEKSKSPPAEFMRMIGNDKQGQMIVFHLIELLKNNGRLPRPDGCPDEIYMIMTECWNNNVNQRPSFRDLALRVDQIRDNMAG
T24 sequence (P11309 whole entry): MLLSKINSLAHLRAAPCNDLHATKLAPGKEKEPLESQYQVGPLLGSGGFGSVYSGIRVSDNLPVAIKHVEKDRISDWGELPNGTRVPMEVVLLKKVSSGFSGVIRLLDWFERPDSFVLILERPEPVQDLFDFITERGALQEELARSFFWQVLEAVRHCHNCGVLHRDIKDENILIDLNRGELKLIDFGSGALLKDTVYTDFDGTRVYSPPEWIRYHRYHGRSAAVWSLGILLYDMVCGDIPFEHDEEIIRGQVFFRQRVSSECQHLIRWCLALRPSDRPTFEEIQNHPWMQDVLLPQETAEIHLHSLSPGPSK
T38 sequence (P51955 whole entry): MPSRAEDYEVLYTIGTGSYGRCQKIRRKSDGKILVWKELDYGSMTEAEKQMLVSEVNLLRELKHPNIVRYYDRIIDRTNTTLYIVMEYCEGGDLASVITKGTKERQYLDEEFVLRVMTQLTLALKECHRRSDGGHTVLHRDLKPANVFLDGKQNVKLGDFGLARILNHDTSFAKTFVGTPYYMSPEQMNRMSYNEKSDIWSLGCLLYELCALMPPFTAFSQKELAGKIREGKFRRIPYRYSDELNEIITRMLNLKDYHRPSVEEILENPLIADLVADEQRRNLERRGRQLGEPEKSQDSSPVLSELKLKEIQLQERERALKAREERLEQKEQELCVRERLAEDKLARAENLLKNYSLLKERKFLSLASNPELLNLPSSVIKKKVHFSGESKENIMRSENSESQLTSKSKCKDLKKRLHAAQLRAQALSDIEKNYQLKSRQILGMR
T30 sequence (Q00537 whole entry): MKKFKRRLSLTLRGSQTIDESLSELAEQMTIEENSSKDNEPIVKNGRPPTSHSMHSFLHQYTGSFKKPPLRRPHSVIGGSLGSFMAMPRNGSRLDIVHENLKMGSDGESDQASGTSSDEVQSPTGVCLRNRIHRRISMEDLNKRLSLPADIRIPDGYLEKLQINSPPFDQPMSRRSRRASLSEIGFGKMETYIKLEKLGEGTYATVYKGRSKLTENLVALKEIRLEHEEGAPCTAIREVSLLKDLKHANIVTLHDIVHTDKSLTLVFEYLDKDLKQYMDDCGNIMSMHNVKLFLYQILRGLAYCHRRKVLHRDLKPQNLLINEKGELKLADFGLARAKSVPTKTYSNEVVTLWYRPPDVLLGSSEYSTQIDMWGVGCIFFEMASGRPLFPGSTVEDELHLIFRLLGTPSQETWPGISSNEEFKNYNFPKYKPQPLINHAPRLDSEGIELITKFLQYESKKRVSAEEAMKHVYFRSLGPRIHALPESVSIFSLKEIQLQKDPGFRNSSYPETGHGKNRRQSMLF
T25 sequence (P29322 28-1005): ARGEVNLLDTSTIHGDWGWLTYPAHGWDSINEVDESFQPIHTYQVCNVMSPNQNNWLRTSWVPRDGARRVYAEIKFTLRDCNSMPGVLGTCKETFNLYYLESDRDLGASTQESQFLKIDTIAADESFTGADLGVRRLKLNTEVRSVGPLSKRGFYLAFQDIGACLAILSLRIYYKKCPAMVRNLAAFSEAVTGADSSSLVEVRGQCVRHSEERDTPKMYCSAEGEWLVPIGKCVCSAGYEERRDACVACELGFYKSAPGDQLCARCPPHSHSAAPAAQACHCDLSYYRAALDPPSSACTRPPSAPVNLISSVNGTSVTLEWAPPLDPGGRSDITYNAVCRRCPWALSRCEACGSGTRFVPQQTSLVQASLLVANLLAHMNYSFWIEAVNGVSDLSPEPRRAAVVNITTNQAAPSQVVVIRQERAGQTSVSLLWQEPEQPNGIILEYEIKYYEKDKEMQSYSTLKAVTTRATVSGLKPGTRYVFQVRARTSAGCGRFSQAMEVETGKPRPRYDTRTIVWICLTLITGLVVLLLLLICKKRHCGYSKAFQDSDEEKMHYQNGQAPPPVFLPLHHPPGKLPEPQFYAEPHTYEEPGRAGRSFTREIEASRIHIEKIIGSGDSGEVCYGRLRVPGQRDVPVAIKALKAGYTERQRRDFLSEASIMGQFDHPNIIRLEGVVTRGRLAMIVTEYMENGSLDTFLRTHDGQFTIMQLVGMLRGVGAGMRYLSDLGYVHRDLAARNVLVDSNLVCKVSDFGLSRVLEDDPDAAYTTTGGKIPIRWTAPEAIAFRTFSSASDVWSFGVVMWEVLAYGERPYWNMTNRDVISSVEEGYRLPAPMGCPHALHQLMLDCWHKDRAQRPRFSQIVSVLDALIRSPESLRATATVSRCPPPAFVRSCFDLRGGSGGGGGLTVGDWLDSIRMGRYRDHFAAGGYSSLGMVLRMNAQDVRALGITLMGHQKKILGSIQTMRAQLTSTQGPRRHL
T27 sequence (Q15418 1-391 limits assumed): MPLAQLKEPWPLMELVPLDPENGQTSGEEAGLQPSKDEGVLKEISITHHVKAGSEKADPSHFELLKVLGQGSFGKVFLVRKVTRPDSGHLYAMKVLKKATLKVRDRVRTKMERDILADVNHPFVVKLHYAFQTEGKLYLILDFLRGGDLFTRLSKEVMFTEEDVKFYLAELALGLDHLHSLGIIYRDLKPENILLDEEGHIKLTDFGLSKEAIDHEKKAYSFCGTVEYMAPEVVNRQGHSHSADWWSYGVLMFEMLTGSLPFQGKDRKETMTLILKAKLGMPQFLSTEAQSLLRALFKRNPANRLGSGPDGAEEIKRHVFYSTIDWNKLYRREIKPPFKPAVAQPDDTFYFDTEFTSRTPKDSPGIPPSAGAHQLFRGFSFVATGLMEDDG
T9 sequence (Q8IVW4 whole entry): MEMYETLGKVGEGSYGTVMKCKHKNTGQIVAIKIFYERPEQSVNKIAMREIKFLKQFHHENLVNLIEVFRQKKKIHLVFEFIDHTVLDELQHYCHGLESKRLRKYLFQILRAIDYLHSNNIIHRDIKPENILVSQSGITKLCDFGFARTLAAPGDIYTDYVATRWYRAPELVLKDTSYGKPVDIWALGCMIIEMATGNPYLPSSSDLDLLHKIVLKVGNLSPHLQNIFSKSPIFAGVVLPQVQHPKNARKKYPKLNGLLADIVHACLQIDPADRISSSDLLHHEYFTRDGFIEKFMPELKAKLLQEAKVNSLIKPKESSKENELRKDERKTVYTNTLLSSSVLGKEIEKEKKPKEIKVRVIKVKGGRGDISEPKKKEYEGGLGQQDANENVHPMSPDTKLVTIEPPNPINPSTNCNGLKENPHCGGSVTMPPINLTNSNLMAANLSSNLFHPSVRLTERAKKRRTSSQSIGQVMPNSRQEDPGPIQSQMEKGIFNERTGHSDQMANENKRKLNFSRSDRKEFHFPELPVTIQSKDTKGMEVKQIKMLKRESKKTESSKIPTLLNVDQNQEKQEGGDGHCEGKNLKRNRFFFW

CC(C)NC(=O)COc1cccc(-c2nc(Nc3ccc4[nH]ncc4c3)c3ccccc3n2)c1 [KD025, 2-(3-(4-((1H-indazol-5-yl)amino)quinazolin-2-yl)phenoxy)-N-isopropylacetamide]
remaining binding at 10 µM [1]: 83% | remaining binding at 10 µM [2]: 63% | remaining binding at 10 µM [3]: 72% | remaining binding at 10 µM [4]: 88% | remaining binding at 10 µM [5]: 57% | remaining binding at 10 µM [6]: 71% | remaining binding at 10 µM [7]: 94% | remaining binding at 10 µM [8]: 100% | remaining binding at 10 µM [9]: 91% | remaining binding at 10 µM [10]: 29% | remaining binding at 10 µM [11]: 6.2% | remaining binding at 10 µM [12]: 76% | remaining binding at 10 µM [13]: 93% | remaining binding at 10 µM [14]: 46% | remaining binding at 10 µM [15]: 72% | remaining binding at 10 µM [16]: 78% | remaining binding at 10 µM [17]: 96% | remaining binding at 10 µM [18]: 95% | remaining binding at 10 µM [19]: 69% | remaining binding at 10 µM [20]: 71% | absolute bioavailability [21]: 37% | remaining binding at 10 µM [22]: 81% | remaining binding at 10 µM [23]: 95% | remaining binding at 10 µM [24]: 83% | remaining binding at 10 µM [25]: 100% | remaining binding at 10 µM [26]: 88% | remaining binding at 10 µM [27]: 58% | remaining binding at 10 µM [28]: 7.8% | remaining binding at 10 µM [29]: 80% | remaining binding at 10 µM [30]: 72% | remaining binding at 10 µM [31]: 94% | remaining binding at 10 µM [32]: 51% | remaining binding at 10 µM [33]: 70% | remaining binding at 10 µM [34]: 82% | remaining binding at 10 µM [35]: 93% | remaining binding at 10 µM [36]: 78% | remaining binding at 10 µM [37]: 66% | remaining binding at 10 µM [38]: 77% | remaining binding at 10 µM [39]: 83% | remaining binding at 10 µM [40]: 60% | remaining binding at 10 µM [41]: 77% | remaining binding at 10 µM [42]: 69%
